Columns and labels:
[1] = cited from earlier work
[2] = tested on: patient suffering from ADHD; test: Example 1: patient suffering from ADHD treated with and without an appetite stimulant (appetite, blood glucose, attentiveness by CGI-S and CGI-I); type: in vivo, human
Text: A patient suffering from ADHD is prescribed and administered an amphetamine to treat ADHD. The patient takes the amphetamine once a day in the morning or afternoon. […] As a result, the glucose level measured in the blood increases as shown in FIG. 1 and the patient's attentiveness recovers as measured by CGI-S and CGI-I. By taking the appetite stimulant during the time when the patient was awake, the patient increased their caloric intake during times when the patient needed to maintain their attentiveness in order to have reasonable cognition and/or social behaviour.

[3] = Example 2 case study: child with ADHD on methylphenidate, then Periactin (height, weight, percentiles, attentiveness); type: in vivo, human
Text: Case study: A child was presented by their parents for symptoms of attention deficit hyperactivity disorder. Their size at evaluation was 4′1¾″ and 50 lbs, corresponding to the 81st and 50th percentiles when compared to girls their age. […] At three months following the initiation of treatment for ADHD, the child was 4′2⅞″ and 50½ lbs, corresponding to the 85th and 34rd percentiles when compared to girls their age. At one year, they were 4′4⅜″ and 53 lbs, corresponding to the 84th and 36th percentiles when compared to girls their age. At two years they were 4′5¾″ and 54 lbs, corresponding to the 72nd and 17th percentiles when compared to girls their age. At four years of treatment they were 4′7⅜″ and 59 lbs, corresponding to 70th and 14th percentiles when compared to girls their age. At five years of treatment they were 4′9⅞″ and 64½ lbs, corresponding to 59th and 7th percentiles when compared to girls their age.
The child was then prescribed Periactin at a dosage of 2 mg b.i.d. to attempt to stimulate appetite. The dose was taken in the morning and then in the afternoon. After one year they were 4′11½″ and 72½ lbs, corresponding to 33rd and 5th percentiles when compared to girls their age. The child was then prescribed Periactin at a dose of 4 mg b.i.d. After two months on this dose, they were 5′¼″ and 76 lbs, corresponding to 37th and 8th percentiles when compared to girls their age. At 8 months on this dose, they were 5′½″ and 80 lbs, corresponding to 41st and 8th percentiles when compared to girls their age. At one year on this dose, they were 5′2¾″ and 89½ lbs, corresponding to 51st and 17th percentiles when compared to girls their age. At 18 months on this dose, they were 5′3⅝″ and 99½ lbs, corresponding to 56th and 30th percentiles when compared to girls their age. Additionally, the attentiveness of the child increase following the prescription of Periactin as they increased their food intake during the day.

[4] = Periactin 2 mg b.i.d., after one year
[5] = Periactin 4 mg b.i.d., 8 months
[6] = Periactin 4 mg b.i.d., 18 months
[7] = Periactin 4 mg b.i.d., one year
[8] = Periactin 4 mg b.i.d., two months

CN1CCC(=C2c3ccccc3C=Cc3ccccc32)CC1.Cl [Periactin, 4-(5H-dibenzo[a,d]cyclohepten-5-ylidene)-1-methylpiperidine hydrochloride]
time to reach peak plasma levels ([1]; after administration): 1 to 3 h | half-life ([1]; in vivo): 8 h | attentiveness as measured by CGI-S and CGI-I ([2]; amphetamine and Cyproheptadine once a day): recovers | appetite ([2]; amphetamine and Cyproheptadine once a day in the morning or afternoon): resumes | glucose level measured in the blood ([2]; amphetamine and Cyproheptadine once a day, FIG. 1): increases | height percentile compared to girls their age [3, 4]: 33 percentile | weight percentile compared to girls their age [3, 4]: 5 percentile | height percentile compared to girls their age [3, 5]: 41 percentile | weight [3, 5]: 80 lbs | weight percentile compared to girls their age [3, 5]: 8 percentile | height percentile compared to girls their age [3, 6]: 56 percentile | weight percentile compared to girls their age [3, 6]: 30 percentile | height percentile compared to girls their age [3, 7]: 51 percentile | weight percentile compared to girls their age [3, 7]: 17 percentile | height percentile compared to girls their age [3, 8]: 37 percentile | weight [3, 8]: 76 lbs | weight percentile compared to girls their age [3, 8]: 8 percentile | attentiveness ([3]; following the prescription of Periactin): increase

Reference: US10682409B2, “Therapeutic treatment” (priority 2012, dated 2020)
